This is an account of results in patent US12448383B2, “Compounds and methods for treatment of viral infections” (priority 2022, dated 2025).

The nature of data set [1]: Stability in pH2 buffered solution. Type of data set: physicochemical. Particulars: 50 µg/mL, pH 2. How it is done:
Example N: Stability in p112 and p117 Buffered Solutions
The aqueous stability of compounds over a time of 24 hours at 40° C. was assessed. Stability was determined in 50 mM phosphate buffered solutions at both pH2 and pH7, with 150 mM NaCl (to achieve isotonicity). 3-5 mg of solid compounds were added to 7 mL scintillation vials. Acetonitrile was added to each vial to produce a 1 mg/mL stock solution. Stock solutions were diluted to 50 μg/mL in either pH2 or pH7 phosphate buffer, to a volume of 1 mL. For each compound and pH condition, 50 μg/mL samples were prepped in duplicate. One sample was placed on the UPLC tray at 40° C. for analysis, and the second sample was placed in a 40° C. oven for storage. Sample preps for each compound were offset by 40 minutes to account for run time on UPLC.
Concentration timepoints were measured at 0, 3, 6, 9, and 12 hrs. After 24 hrs, samples in the 40° C. oven were removed and analyzed by UPLC.
In FIG. 2, % AN stands for % area normalized. That is, % AN is the area of the compound peak relative to the sum of areas of all the peaks in the UPLC chromatogram. For example, if there were two peaks, compound peak with an area of 9 and another peak with an area of 1, then the % AN of the compound peak would be 90%.

For data set [2], the system named is Respiratory syncytial virus recombinant with luciferase (RSV-Luc5) in Normal Human Bronchial Epithelial (NHBE) cells. The data set can be described thus: microbe, parasite or virus in culture. Type of data set: cell-based. Particulars: 72 h, read-out: RSV NHBE EC50.
Data set [3] in a line: Plasma stability. Details: unit not given here. Conditions: 37° C., 2 μM substrate. The format is in vitro ADME. Put shortly:
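Reaction mixture was sampled at 0.05, 0.5, 1, 2, 3 and 4 hr into quench solution containing internal standard, then centrifuged and diluted with water. Remaining analyte was measured by LC-MS on a Q-Exactive using a formic acid/acetonitrile gradient, with 5 ppm mass tolerance.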

Data set [4] deals with Caco-2 cells (clone C2BBe1). The data set can be described thus: CACO-2 permeability. Type of data set: in vitro ADME. Details: unit not given here. Conditions: for DM Caco2 A to B: apical to basolateral, donor pH 6.5, receiver pH 7.4; for DM Caco2 B to A: basolateral to apical. Put shortly:
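Caco-2 monolayers grown 21 days on collagen-coated transwells and checked for integrity by TEER. Donor buffer was HBSS/HEPES/glucose pH 6.5 with 200 μM BNPP; receiver was pH 7.4 with BSA. Compounds were dosed apically or basolaterally for A-to-B and B-to-A transport, with receiver sampling at 1 and 2 h, LC-MS/MS analysis and percent recovery.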
(In general: Caco-2 cells form a polarised layer with tight junctions and transporters.)

The nature of data set [5]: CC50 MT4 cytotoxicity (Cell-Titer Glo). Type of data set: cell-based. Particulars: human. Put shortly: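 Uninfected MT-4 and HEp-2 cells cultured 4-5 days at 37° C with 3-fold serially diluted compound (15 nM to 100,000 nM). Viability read by Cell-Titer Glo luminescence; untreated and 2 μM puromycin wells set 100% and 0%. CC50 from non-linear regression as concentration reducing viability by 50%.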

A short description of data set [6]: GI S9 stability - no PMSF. Conditions: pH 7.4; human intestinal S9, PMSF-free; read-out: GIS9-HUMAN-NoPMSF T1/2. Type of data set: in vitro ADME. The method in brief:
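Compounds were incubated at 2 μM with PMSF-free intestinal S9 (1 mg/mL protein) in 100 mM PBS, pH 7.4, sampling at 6 time points over 120 min. Parent disappearance and formation of the nucleoside metabolite Reference Compound A were quantified by LC-MS (Q-Exactive) using analyte/internal standard peak area ratios.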

Data set [7] has as its system Respiratory syncytial virus recombinant with luciferase (RSV-Luc5) in HEp-2 cells. The data set can be described thus: microbe, parasite or virus in culture. The format is cell-based. Conditions: human respiratory syncytial virus, HEp-2, 72 h, read-out: RSV Hep2 EC50.
For data set [8], the system named is SARS Coronavirus 2 recombinant with NanoLuc (SARS-CoV2-NLuc) in A549-hACE2 cells. Briefly: organism not typed. Type of data set: cell-based. Particulars: 48 h; read-out: SARS-CoV2 EC50.

`CC(C)C(=O)OC[C@H]1O[C@@](C#N)(c2ccc3c(N)ncnn23)[C@H](OC(=O)C(C)C)[C@@H]1OC(=O)C(C)C` [2nd Ester Reference Compound]: in data set [1] (0 h), the “Stability at pH2, 0 hr” value is given as 100.0 % AN. Besides, the “Stability at pH2, 3 hr” value in data set [1] (3 h) was determined as 100.0 % AN. Further, in data set [1] (6 h), the “Stability at pH2, 6 hr” value was found to be 100.0 % AN. In addition, in data set [1] (9 h), the “Stability at pH2, 9 hr” value turned out to be 98.3 % AN. The “Stability at pH2, 12 hr” value in data set [1] (12 h) came to 97.7 % AN. Further, in data set [1] (24 h), the “Stability at pH2, 24 hr” value is on record as 96.2 % AN.
Usually EC50 stands for the concentration that produces a half-maximal response. The term CC50 denotes the concentration at which the toxic effect on the cells reaches its halfway point. As for `CC1(C)C2CCC1(C)C(OC(=O)OC[C@H]1O[C@@](C#N)(c3ccc4c(N)ncnn34)[C@H](O)[C@@H]1O)C2` (stereo partly drawn) [Compound 71, ((2R,3S,4R,5R)-5-(4-aminopyrrolo[2,1-f][1,2,4]triazin-7-yl)-5-cyano-3,4-dihydroxytetrahydrofuran-2-yl)methyl (1,7,7-trimethylbicyclo[2.2.1]heptan-2-yl) carbonate], the concentration for a half-maximal effect (EC50) in data set [2] amounted to 532 nM; in data set [7] it was 3010 nM; in data set [8], 7820 nM. The “STA Human Plasma 37” value in data set [3] amounted to 1584. Also, the “DM Caco2 A to B” value in data set [4] was 4.02. In data set [4], the “DM Caco2 B to A” value worked out at 13.65. In addition, it took 47800 nM to reach half-maximal cytotoxicity in data set [5] (CC50). In data set [6], the half-life at 2 µM is 25.8 min.
On to `N#C[C@@]1(c2ccc3c(N)ncnn23)O[C@H](COC(=O)OCC23CC(C2)C3)[C@@H](O)[C@H]1O` [Compound 72, ((2R,3S,4R,5R)-5-(4-aminopyrrolo[2,1-f][1,2,4]triazin-7-yl)-5-cyano-3,4-dihydroxytetrahydrofuran-2-yl)methyl (bicyclo[1.1.1]pentan-1-ylmethyl) carbonate], for which the 50% effective concentration (EC50) in data set [2] is 1820 nM; in data set [7] it was 779 nM; in data set [8], 1130 nM. Also, the “STA Human Plasma 37” value in data set [3] turned out to be 31.1. Besides, the “DM Caco2 A to B” value in data set [4] worked out at 2.52. Also, the “DM Caco2 B to A” value in data set [4] is listed as 10.69. Also, the 50% cytotoxic concentration (CC50) in data set [5] is greater than 50000 nM. The half-life at 2 µM in data set [6] stood at 0.623 min.
Take `N#C[C@@]1(c2ccc3c(N)ncnn23)O[C@H](COC(=O)OC2CC(F)(F)C2)[C@@H](O)[C@H]1O` [Compound 73, ((2R,3S,4R,5R)-5-(4-aminopyrrolo[2,1-f][1,2,4]triazin-7-yl)-5-cyano-3,4-dihydroxytetrahydrofuran-2-yl)methyl (3,3-difluorocyclobutyl) carbonate]: the concentration for a half-maximal effect (EC50) was 1100 nM in data set [2], 206 nM in data set [7] and 1900 nM in data set [8]. In addition, the “STA Human Plasma 37” value in data set [3] amounted to 70. The “DM Caco2 A to B” value in data set [4] is 0.48. Further, the “DM Caco2 B to A” value in data set [4] is 4.69. The half-maximal cytotoxic concentration (CC50) in data set [5] is greater than 50000 nM. In addition, in data set [6], the half-life at 2 µM came to 0.588 min.
On to `N#C[C@@]1(c2ccc3c(N)ncnn23)O[C@H](COC(=O)OC2CCC(F)(F)CC2)[C@@H](O)[C@H]1O` [Compound 84, ((2R,3S,4R,5R)-5-(4-aminopyrrolo[2,1-f][1,2,4]triazin-7-yl)-5-cyano-3,4-dihydroxytetrahydrofuran-2-yl)methyl (4,4-difluorocyclohexyl) carbonate], for which the EC50 in data set [2] amounted to 205 nM; in data set [7], 311 nM; in data set [8], 1540 nM. Further, in data set [3], the “STA Human Plasma 37” value stood at 327.2. Also, in data set [4], the “DM Caco2 A to B” value was 0.27. The “DM Caco2 B to A” value in data set [4] is 6.99. Further, the CC50 in data set [5] is greater than 50000 nM. Moreover, the half-life at 2 µM in data set [6] amounted to 0.955 min.
For `C[C@@H](OC(=O)OC[C@H]1O[C@@](C#N)(c2ccc3c(N)ncnn23)[C@H](O)[C@@H]1O)c1ccccc1` [Compound 87, ((2R,3S,4R,5R)-5-(4-aminopyrrolo[2,1-f][1,2,4]triazin-7-yl)-5-cyano-3,4-dihydroxytetrahydrofuran-2-yl)methyl ((R)-1-phenylethyl) carbonate], the values for the concentration giving a half-maximal response (EC50) in data set [2], in data set [7] and in data set [8] were 559 nM, 345 nM and 1050 nM, respectively. Besides, the “STA Human Plasma 37” value in data set [3] is listed as 28.7. The “DM Caco2 A to B” value in data set [4] was determined as 1.79. In addition, the “DM Caco2 B to A” value in data set [4] is 10.98. Besides, the 50% cytotoxic concentration (CC50) in data set [5] was greater than 50000 nM. Further, the half-life at 2 µM in data set [6] amounted to 1.25 min.
Consider `C[C@H](OC(=O)OC[C@H]1O[C@@](C#N)(c2ccc3c(N)ncnn23)[C@H](O)[C@@H]1O)c1ccccc1` [Compound 88, ((2R,3S,4R,5R)-5-(4-aminopyrrolo[2,1-f][1,2,4]triazin-7-yl)-5-cyano-3,4-dihydroxytetrahydrofuran-2-yl)methyl ((S)-1-phenylethyl) carbonate], for which the half-maximal effective concentration (EC50) in data set [2] amounted to 70.2 nM; in data set [7] it was 382 nM; in data set [8], 1630 nM. Besides, the “STA Human Plasma 37” value in data set [3] is 1584. Further, the “DM Caco2 A to B” value in data set [4] was determined as 2.72. In addition, the “DM Caco2 B to A” value in data set [4] was 12.82. Further, the CC50 in data set [5] was greater than 50000 nM. The half-life at 2 µM in data set [6] worked out at 4.91 min.
With `CC[C@H](C)OC(=O)OC[C@H]1O[C@@](C#N)(c2ccc3c(N)ncnn23)[C@H](O)[C@@H]1O` [Compound 90, ((2R,3S,4R,5R)-5-(4-aminopyrrolo[2,1-f][1,2,4]triazin-7-yl)-5-cyano-3,4-dihydroxytetrahydrofuran-2-yl)methyl ((S)-sec-butyl) carbonate], the 50% effective concentration (EC50) in data set [2] came out at 180 nM; in data set [7], 249 nM; in data set [8] it was 1840 nM. Also, in data set [3], the “STA Human Plasma 37” value is 169.9. The “DM Caco2 A to B” value in data set [4] is reported as 0.9. Besides, the “DM Caco2 B to A” value in data set [4] was found to be 7.41. The same molecule yielded a cytotoxic concentration (CC50) in data set [5] greater than 50000 nM. Moreover, the half-life at 2 µM in data set [6] turned out to be 0.591 min.
`N#C[C@@]1(c2ccc3c(N)ncnn23)O[C@H](COC(=O)OCc2ncccn2)[C@@H](O)[C@H]1O` [Compound 91, ((2R,3S,4R,5R)-5-(4-aminopyrrolo[2,1-f][1,2,4]triazin-7-yl)-5-cyano-3,4-dihydroxytetrahydrofuran-2-yl)methyl (pyrimidin-2-ylmethyl) carbonate]: the half-maximal effective concentration (EC50) came to 5840 nM in data set [2], 3640 nM in data set [7] and 14700 nM in data set [8]. Further, the “STA Human Plasma 37” value in data set [3] is 285. Besides, in data set [4], the “DM Caco2 A to B” value is on record as 0.02. Also, the “DM Caco2 B to A” value in data set [4] is reported as 0.5. Further, the cytotoxic concentration (CC50) in data set [5] is greater than 50000 nM. The half-life at 2 µM in data set [6] worked out at 42 min.
For the molecule `N#C[C@@]1(c2ccc3c(N)ncnn23)O[C@H](COC(=O)OCCN2CCOCC2)[C@@H](O)[C@H]1O` [Compound 92, ((2R,3S,4R,5R)-5-(4-aminopyrrolo[2,1-f][1,2,4]triazin-7-yl)-5-cyano-3,4-dihydroxytetrahydrofuran-2-yl)methyl (2-morpholinoethyl) carbonate], the values for the EC50 in data set [2], in data set [7] and in data set [8] were 3040 nM, 1800 nM and 5630 nM, respectively. Also, the “STA Human Plasma 37” value in data set [3] came out at 139.9. Further, in data set [4], the “DM Caco2 A to B” value is 0.07. The “DM Caco2 B to A” value in data set [4] is 0.48. The half-maximal cytotoxic concentration (CC50) in data set [5] is greater than 50000 nM. In addition, the half-life at 2 µM in data set [6] came to 238 min.
As for `N#C[C@@]1(c2ccc3c(N)ncnn23)O[C@H](COC(=O)OC(CF)CF)[C@@H](O)[C@H]1O` [Compound 94, ((2R,3S,4R,5R)-5-(4-aminopyrrolo[2,1-f][1,2,4]triazin-7-yl)-5-cyano-3,4-dihydroxytetrahydrofuran-2-yl)methyl (1,3-difluoropropan-2-yl) carbonate], the EC50 in data set [2] came out at 923 nM; in data set [7], 1020 nM; in data set [8], 3630 nM. For the same molecule, the “STA Human Plasma 37” value in data set [3] is 105.4. Moreover, the “DM Caco2 A to B” value in data set [4] was 0.13. Further, the “DM Caco2 B to A” value in data set [4] is on record as 2.19. In data set [5], the half-maximal cytotoxic concentration (CC50) is greater than 50000 nM. In addition, the half-life at 2 µM in data set [6] came out at 1.13 min.
